pIC50, pKi: −log10 of the molar value. Like-named read-outs stand apart in the source and are kept apart here.
Assays:
[1] = molecular target: T1, human D2S receptor (Homo sapiens, UniProt P14416); test: radioligand binding to dopamine receptor D2S ([3H] Spiperone); conditions: for Dopamine receptor D2S, % inhibition: 10 μM ligand
T1 construct: expressed in transfected cells; host or cells: CHO
Excerpt: 7-C. […] For this purpose sDNA of human D2S receptor is expressed in CHO cells, as described in [Hayes G, Biden T J, Selbie L A and Shine J, Structural subtypes of the dopamine D2 receptor are functionally distinct. […] Mol. Endocrinol. […] Mol. Endocrinol. […] Spiperone is used as positive control.

[2] = molecular target: T2, human α2A receptor (Homo sapiens, UniProt P08913); test: radioligand binding to adrenergic receptor α2A ([3H] MK-912)
T2 construct: expressed in transfected cells; host or cells: Sf9
T2 sequence (P08913 1-465): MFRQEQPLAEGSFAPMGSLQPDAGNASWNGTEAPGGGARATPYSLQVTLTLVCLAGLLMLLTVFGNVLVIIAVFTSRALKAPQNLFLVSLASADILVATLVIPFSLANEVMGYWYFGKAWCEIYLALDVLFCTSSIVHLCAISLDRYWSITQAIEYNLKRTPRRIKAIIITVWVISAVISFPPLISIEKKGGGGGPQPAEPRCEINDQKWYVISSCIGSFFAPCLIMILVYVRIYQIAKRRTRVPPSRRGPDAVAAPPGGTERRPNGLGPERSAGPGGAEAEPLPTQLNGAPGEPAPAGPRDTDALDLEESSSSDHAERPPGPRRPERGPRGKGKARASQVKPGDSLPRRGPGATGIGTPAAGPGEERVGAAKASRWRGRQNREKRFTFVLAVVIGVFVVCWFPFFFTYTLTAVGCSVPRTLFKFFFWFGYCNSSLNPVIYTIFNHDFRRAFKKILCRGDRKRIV
Excerpt: J Pharmacol ExpTher. […] Yohimbine is used as positive control.

[3] = molecular target: T3, human H1 receptor (Homo sapiens, UniProt P35367); test: radioligand binding to histamine receptor H1 ([3H] Pyrilamine); conditions: for Histamine receptor H1, % inhibition: 10 μM ligand
T3 construct: expressed in transfected cells; host or cells: CHO-K1
Excerpt: Biochem Biophys Res Comm. 197(3): 1601-1608, 1993]. […] Biochem Biophys Res Comm. 197(3): 1601-1608, 1993].
Pyrilamine is used as positive control.

[4] = tested on: imidazoline receptor I2; test: radioligand binding to imidazoline receptor I2 ([3H] Idazoxan); set-up: species or system rat
Method: Determination of investigated compounds' binding to imidazoline I2 receptor is carried out according to the method described in [Brown C M, MacKinnon A C, McGrath J C, Spedding M and Kilpatrick A T, a2-Adrenoceptor subtypes and imidazoline-like binding in the rat brain. Br J. Pharmacol. 99:803-809, 1990]. […] Idazoxan is used as positive control.

[5] = molecular target: T4, adrenergic receptor α1B (Rattus norvegicus, UniProt P15823); test: radioligand binding to adrenergic receptor α1B ([3H] Prazosin)
T4 construct: membrane species from rat liver (rat of Wistar breed) are prepared; from tissue; host or cells: rat (Wistar) liver membranes
T4 sequence (P15823 1-515): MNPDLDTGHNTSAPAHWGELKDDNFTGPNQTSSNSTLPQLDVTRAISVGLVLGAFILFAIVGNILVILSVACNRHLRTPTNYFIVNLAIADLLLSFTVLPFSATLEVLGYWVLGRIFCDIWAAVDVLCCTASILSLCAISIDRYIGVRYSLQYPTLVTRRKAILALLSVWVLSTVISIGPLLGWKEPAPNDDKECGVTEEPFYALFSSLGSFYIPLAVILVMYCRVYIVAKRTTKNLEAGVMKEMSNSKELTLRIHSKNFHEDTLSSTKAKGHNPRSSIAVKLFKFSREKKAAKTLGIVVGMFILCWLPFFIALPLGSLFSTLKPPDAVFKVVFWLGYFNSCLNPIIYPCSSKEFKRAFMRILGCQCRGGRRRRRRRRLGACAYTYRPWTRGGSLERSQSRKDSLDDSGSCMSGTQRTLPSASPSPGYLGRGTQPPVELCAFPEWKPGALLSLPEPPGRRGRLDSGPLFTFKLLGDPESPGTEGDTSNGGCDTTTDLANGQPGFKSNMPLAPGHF
Excerpt: Species heterogeneity of hepatic α1A-, α1B-, and α1C-subtypes. Biochem Biophys Res Commun. 186:760-7676 1992]. […] Prazosin is used as positive control.

[6] = molecular target: T5, human D3 receptor (Homo sapiens, UniProt P35462); test: radioligand binding to dopamine receptor D3 ([3H] Spiperone); conditions: for Dopamine receptor D3, % inhibition: 10 μM ligand
T5 construct: expressed in transfected cells; host or cells: CHO
Excerpt: For this purpose sDNA of human D3 receptor is expressed in CHO cells, as it was described in [Sokoloff P, Giros B, Martres M-P, Bouthenet M-L and Schwartz J-C. Molecular cloning and characterization of novel dopamine receptor (D3) as target for neuroleptics. Nature. […] Molecular cloning and characterization of novel dopamine receptor (D3) as target for neuroleptics. Nature. […] Spiperone is used as positive control.

[7] = molecular target: T6, adrenergic receptor α1A (Rattus norvegicus, UniProt P43140); test: radioligand binding to adrenergic receptor α1A ([3H] Prazosin)
T6 construct: membrane species from rat submaxillary glands (rat of Wistar breed) are prepared; from tissue; host or cells: rat (Wistar) submaxillary gland membranes
T6 sequence (P43140 1-466): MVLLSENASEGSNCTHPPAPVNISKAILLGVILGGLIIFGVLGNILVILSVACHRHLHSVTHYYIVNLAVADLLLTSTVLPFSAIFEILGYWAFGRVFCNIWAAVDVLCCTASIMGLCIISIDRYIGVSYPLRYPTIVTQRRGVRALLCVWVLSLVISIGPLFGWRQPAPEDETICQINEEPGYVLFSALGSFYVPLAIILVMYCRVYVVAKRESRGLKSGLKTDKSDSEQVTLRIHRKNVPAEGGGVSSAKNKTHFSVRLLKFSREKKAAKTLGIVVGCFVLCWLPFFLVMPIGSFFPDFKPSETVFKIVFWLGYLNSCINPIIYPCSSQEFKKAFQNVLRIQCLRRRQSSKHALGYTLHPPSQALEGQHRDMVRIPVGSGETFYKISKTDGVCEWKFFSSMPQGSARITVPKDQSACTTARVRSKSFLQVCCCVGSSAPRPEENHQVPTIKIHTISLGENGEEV
Method: Determination of investigated compounds' binding to α1A receptor was carried out according to the method described in [Michel A D, Loury D N and Whiting R l. Identification of a single α1A-adrenoceptor corresponding to the α1A-subtype in rat submaxillary gland. Br J. Pharmacol. 98:883-889, 1989]. […] Prazosin is used as positive control.

[8] = molecular target: T7, recombinant human 5-HT6 receptor (Homo sapiens, UniProt P50406); test: radioligand binding to serotonin receptor 5-HT6 ([3H] Lysergic acid diethylamide); conditions: for inhibition at 1 µM: read-out: 5-HT6 % inhibition
T7 construct: expressed in transfected cells; host or cells: HeLa
Excerpt: Mol. Pharmacol. 43:320-327, 1993]. […] Methiothepin is used as positive control.

T7 sequence (P50406 whole entry): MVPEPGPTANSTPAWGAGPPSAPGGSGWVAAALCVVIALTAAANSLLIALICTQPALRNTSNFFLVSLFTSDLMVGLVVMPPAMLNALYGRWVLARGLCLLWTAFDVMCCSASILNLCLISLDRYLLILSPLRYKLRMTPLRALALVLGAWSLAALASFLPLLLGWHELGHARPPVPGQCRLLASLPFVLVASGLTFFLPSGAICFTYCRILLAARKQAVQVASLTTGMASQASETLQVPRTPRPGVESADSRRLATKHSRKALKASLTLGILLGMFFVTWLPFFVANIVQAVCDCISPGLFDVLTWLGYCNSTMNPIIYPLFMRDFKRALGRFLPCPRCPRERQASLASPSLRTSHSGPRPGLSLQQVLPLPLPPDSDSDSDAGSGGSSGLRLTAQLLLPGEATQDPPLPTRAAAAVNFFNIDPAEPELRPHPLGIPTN
T3 sequence (P35367 whole entry): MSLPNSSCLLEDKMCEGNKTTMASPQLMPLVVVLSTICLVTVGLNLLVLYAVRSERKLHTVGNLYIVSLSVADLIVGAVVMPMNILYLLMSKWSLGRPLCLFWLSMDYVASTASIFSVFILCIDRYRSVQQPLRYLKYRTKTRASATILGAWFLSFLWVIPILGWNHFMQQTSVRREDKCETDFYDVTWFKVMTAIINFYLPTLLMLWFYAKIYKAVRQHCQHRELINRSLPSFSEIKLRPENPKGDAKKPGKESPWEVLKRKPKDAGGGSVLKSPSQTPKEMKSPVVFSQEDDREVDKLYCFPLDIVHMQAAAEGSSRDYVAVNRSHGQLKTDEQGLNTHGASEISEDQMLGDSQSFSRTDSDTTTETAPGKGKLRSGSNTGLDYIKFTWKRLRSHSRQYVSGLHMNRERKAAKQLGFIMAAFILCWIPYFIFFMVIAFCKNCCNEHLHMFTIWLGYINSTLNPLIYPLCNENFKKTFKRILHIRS
T1 sequence (P14416 1-414 isoform P14416-2): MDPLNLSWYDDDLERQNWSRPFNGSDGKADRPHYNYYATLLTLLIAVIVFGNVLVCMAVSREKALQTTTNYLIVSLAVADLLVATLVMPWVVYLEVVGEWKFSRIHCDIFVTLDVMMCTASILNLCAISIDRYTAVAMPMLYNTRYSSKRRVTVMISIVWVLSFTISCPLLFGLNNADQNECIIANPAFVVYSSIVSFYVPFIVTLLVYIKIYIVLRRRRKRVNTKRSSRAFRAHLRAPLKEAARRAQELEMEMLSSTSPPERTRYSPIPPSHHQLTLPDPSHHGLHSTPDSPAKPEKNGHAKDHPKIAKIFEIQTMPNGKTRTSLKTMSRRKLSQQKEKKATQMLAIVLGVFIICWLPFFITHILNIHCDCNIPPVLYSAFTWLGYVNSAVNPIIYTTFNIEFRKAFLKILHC
T5 sequence (P35462 whole entry): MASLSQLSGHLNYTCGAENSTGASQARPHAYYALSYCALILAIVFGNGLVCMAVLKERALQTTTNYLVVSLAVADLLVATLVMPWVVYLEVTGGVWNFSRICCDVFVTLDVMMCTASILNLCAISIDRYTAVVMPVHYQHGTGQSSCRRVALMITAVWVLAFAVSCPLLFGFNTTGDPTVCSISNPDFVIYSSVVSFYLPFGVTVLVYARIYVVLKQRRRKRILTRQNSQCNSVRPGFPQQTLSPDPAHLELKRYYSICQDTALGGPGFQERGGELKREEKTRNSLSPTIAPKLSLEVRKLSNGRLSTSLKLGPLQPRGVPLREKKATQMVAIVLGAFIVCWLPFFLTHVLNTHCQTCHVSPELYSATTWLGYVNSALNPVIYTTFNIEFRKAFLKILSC

Row | Structure (SMILES) | Dopamine receptor D2S, % inhibition [1] [%] | α-Adrenoceptor α2A, % inhibition ([2]; 10 μM ligand) [%] | Histamine receptor H1, % inhibition [3] [%] | imidazoline I2 receptor % inhibition ([4]; 10 μM ligand) [%] | α-Adrenoceptor α1B, % inhibition ([5]; 10 μM ligand) [%] | Dopamine receptor D3, % inhibition [6] [%] | pIC50 [7] | pKi [7] | pIC50 [8] | pKi [8] | nH 5-HT6 [8] | pIC50 [2] | pKi [2] | pIC50 [5] | pKi [5] | further results
1 | Cc1ccc2c(c1)[C@@H]1CN(C)CCC[C@@H]1N2CCc1ccc(C)nc1.Cl.Cl.Cl (relative stereo) [1.6.1(2)•3HCl] | 31 | 82 | 102 | 80 | 93 | 41 | – | – | – | – | – | – | – | – | – | –
2 | Cc1ccc2c(c1)c1c(n2CCc2ccccn2)CCN(C)C1.Cl.Cl [1.1.2(2-3)•2HCl] | – | – | 98 | 88 | – | – | 6.35 | 6.74 | 6.96 | 7.30 | 0.744 | 6.89 | 7.32 | 7.33 | 7.59 | inhibition at 1 µM ([8]; ligand concentration 1 μM): 97%
3 | Cc1ccc2c(c1)[C@H]1CN(C)CCC[C@@H]1N2CCc1cccnc1 [1.6.2(10)•3HCl] | 33 | 92 | 103 | – | 92 | 25 | – | – | – | – | – | – | – | – | – | α-Adrenoceptor α1A, % inhibition ([7]; 10 μM ligand): 86%; inhibition at 1 µM [8]: 93%
4 | CN1CCc2c(c3ccccc3n2Cc2ccccc2)C1 [1.9(1)•½NDSA, bis-(5-benzyl-2-methyl-2,3,4,5-tetrahydro-1H-pyrido[4,3-b]indole) naphtalene-1,5-disulfonate] | 51 | – | – | – | – | 65 | 6.29 | 6.69 | 6.99 | 7.32 | 1.07 | 6.91 | 7.34 | 5.80 | 6.06 | nH α1A [7]: 1.08; α-Adrenoceptor α1A, % inhibition ([7]; 1 μM ligand): 67(1 μM) %; pIC50 [1]: 5.52; pKi [1]: 5.97; nH D2S [1]: 0.879; 5-HT6 % inhibition ([8]; 0.3 μM ligand): 78%; nH α2A [2]: 1.13; α-Adrenoceptor α2A, % inhibition ([2]; 0.3 μM ligand): 73(0.3 μM) %; pIC50 [3]: 8.40; pKi [3]: 8.72; nH H1 [3]: 0.789; imidazoline I2 receptor % inhibition ([4]; 0.3 μM ligand): 87 (0.3 μM) %; nH α1B [5]: 0.956; α-Adrenoceptor α1B, % inhibition ([5]; 3 μM ligand): 62(3 μM) %; pIC50 [6]: 5.87; pKi [6]: 6.34; nH D3 [6]: 1.04

Source: patent US20110039825A1, “LIGANDS OF ALPHA-ADRENOCEPTORS, DOPAMINE, HISTAMINE, IMIDAZOLINE AND SEROTONIN RECEPTORS AND THEIR USE” (Alla Chem, LLC, priority 2007, published 2011)
